Laboratory results as given in patent publication US20220143226A1, “USE OF TRIAZOLO[4,5-D]PYRIMIDINE DERIVATIVES” (UNIVERSITÉ DE LIÈGE, priority 2019, published 2022).

Key:
[1] = target: platelet P2Y12 receptor (Homo sapiens, UniProt Q9H244); settings: well-known in the art; cited from earlier work
[2] = tested on: THP1 cells; assay: Radiotracer uptake into THP1 cells; type: cell-based, human; settings: 2 MBq tracer, 1 h at 37° C.
Method: (§1) THP1 (ATCC® TIB-202™) and HL60 (ATCC® CCL-240™) cell lines were grown in RPMI 1640 tissue culture medium supplemented with L-glutamine, 10% foetal calf serum and 1% penicillin/streptomycin at 37° C. and 5% CO2. HT29 cell line (ATCC® HTB-38) was grown in McCoy's 5A medium and 10% foetal bovine serum at 37° C. and 5% CO2.
(§2) Non-adherent cell lines (HL60, THP1; 1×10^6 cells ml^−1) were harvested, washed and resuspended in 1 ml tissue culture medium. The adherent cells HT29 were maintained in 6-well plates at 80% confluence.
(§3) Bacteria and non-adherent cells were harvested by centrifugation (600×g, 5 min) and washed three times by successive centrifugations. Cell supernatants were collected in scintillation vials. After washing, the cells were transferred into scintillation vials. Adherent cells were washed three times with fresh medium (McCoy's 5A medium plus 10% foetal bovine serum). Supernatants were collected into scintillation vials. Adherent cells were detached by trypsin treatment and placed into scintillation vials. The scintillation vials for cells and supernatants were counted by gamma counter. Results were obtained as counts per min. Results were normalised for controls (no cells) and by calculating the percentage of activity in the cell containing scintillation vials compared with the total counts (cells and supernatant combined).

[3] = tested on: platelet suspensions containing bacteria; assay: Radiotracer uptake into platelet suspensions containing bacteria; type: cell-based, human; settings: 2 MBq tracer, 1 h at 37° C.
Method: Preparation of human washed platelets: a Blood sample was collected from healthy volunteers on Acid Citrate Dextrose (ACD: 93 mM Na3-citrate, 7 mM citric acid, 14 mM dextrose, pH 6.0) containing 1 U/ml apyrase in a volume ratio of ACD to blood of 1:6. Blood was centrifuged for 5 s at 800×g followed by 5 min at 100×g to obtain platelet rich plasma (PRP). PRP was diluted 3-fold in ACD containing 1 U/ml apyrase ((Apyrase from potatoes, Grade I (A6132 Sigma-Aldrich)) and centrifuged at 1000×g to obtain a platelet pellet. The platelet pellet was resuspended at a concentration of 3×10^8 ml^−1 in Tyrode's buffer (137 mM NaCl, 12 mM NaHCO3, 2 mM KCl, 0.34 mM Na2HPO4, 1 mM MgCl2, 5.5 mM glucose, 5 mM Hepes, 0.35% Bovine Serum Albumine from Sigma Aldrich A3294) and Hepes refers to 4-(2-Hydroxyethyl)piperazine-1-ethanesulfonic acid, N-(2-Hydroxyethyl)piperazine-N′-(2-ethanesulfonic acid) (H4034, Sigma-Aldrich).
Bacteria and platelets were harvested by centrifugation (1000×g, 10 min) and washed three times by successive centrifugations (1000×g for 10 min). Supernatants were collected in scintillation vials. After washing, the cells were transferred into scintillation vials. Cells and supernatants were counted by gamma counter (2470 Wizard^2™ (Perkin Elmer))
Results were obtained as counts per min. […]

[4] = tested on: HT29 cells; assay: Radiotracer uptake into HT29 cells; type: cell-based, human; settings: 2 MBq tracer, 1 h at 37° C.
Method: as §1, §2, §3

[5] = tested on: HL60 cells; assay: Radiotracer uptake into HL60 cells; type: cell-based, human; settings: 2 MBq tracer, 1 h at 37° C.
Method: as §1, §2, §3

[6] = tested on: S. epidermidis bacteria; assay: Radiotracer uptake into bacteria, selectivity over mammalian cells (Example 4); type: cell-based; settings: 2 MBq tracer, 1 h at 37° C.
Method: as §3, with “S. epidermidis bacteria were grown overnight in tryptic soy broth (TSB) at 37° C., with shaking at 250 rpm. The overnight culture was diluted to OD600 0.1 and incubated until mid-exponential phase was reached. 1×10^8 CFU were resuspended in 1 ml RPMI 1640. […] Bacteria” for “Bacteria”

platelet P2Y12 receptor, sequence (Q9H244 whole entry): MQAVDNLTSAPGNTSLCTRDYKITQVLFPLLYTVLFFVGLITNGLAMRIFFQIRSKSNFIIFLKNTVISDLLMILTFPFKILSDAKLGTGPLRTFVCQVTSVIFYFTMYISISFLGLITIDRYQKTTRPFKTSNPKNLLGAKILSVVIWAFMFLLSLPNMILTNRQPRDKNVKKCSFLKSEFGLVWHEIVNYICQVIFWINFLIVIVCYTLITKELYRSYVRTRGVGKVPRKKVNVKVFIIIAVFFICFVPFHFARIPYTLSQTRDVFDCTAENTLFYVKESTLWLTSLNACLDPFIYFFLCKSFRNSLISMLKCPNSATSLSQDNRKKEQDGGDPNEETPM

CCCSc1nc(N[C@@H]2C[C@H]2c2ccc(F)c(F)c2)c2nnn([C@@H]3C[C@H](OCCO)[C@@H](O)[C@H]3O)c2n1 [Triafluocyl]
binding to platelet P2Y12 receptor [1]: binds the platelet P2Y12 receptor reversibly

CCCSc1nc(NC2CC2c2ccc([18F])c(F)c2)c2nnn([C@@H]3C[C@H](OCCO)[C@@H](O)[C@H]3O)c2n1 (stereo partly drawn) [^18F-Triafluocyl, (1S,2S,3R,5S)-3-(7-((2-(3-fluoro-4-(fluoro-^18F)phenyl)cyclopropyl)amino)-5-(propylthio)-3H-[1,2,3]triazolo[4,5-d]pyrimidin-3-yl)-5-(2-hydroxyethoxy)cyclopentane-1,2-diol]
uptake into THP1 (leukocytic) cells [2]: no uptake was observed
relative activity associated with the cell mixture, relative to the activity of 18F-FDG [3]: about 10 fold
uptake into HT29 (tumor) cells [4]: no uptake was observed
uptake into HL-60 (leukocytic) cells [5]: no uptake was observed
uptake into bacteria [6]: uptake into bacteria
